Source: article PMC10891682, “In Vitro Metabolism and In Vivo Pharmacokinetics Profiles of Hydroxy-α-Sanshool” (Toxics, 2024)
Several values for one entry are separate records, joined by “and”; a condition that tells them apart may be missing. Equal values may be shown once.

Assay: Plasma protein binding (equilibrium dialysis)
Format: in vitro ADME
Details: human plasma
Description: PPB assays were carried out using the HTD 96-well equilibrium DIALYZERTM (Htdialysis, Gales Ferry, CT, USA). […] Then, the (solution A) was titrated with the (solution B) to pH 7.4 to prepare the dialysis buffer (solution C). The quench solution (solution D) consisted of Alprazolam (100 nM) and Ketoprofen (2 μM) in acetonitrile.
Total 3 μL of testing plasm samples (dissolved in DMSO, 200 μM) was mixed with 597 μL of plasma (the final concentration was 1 μM). The dialysis membranes were pre-soaked with water (60 min), then with 20% ethanol (20 min), and with dialysis buffer (20 min). Both the plasm samples and the dialysis buffer are 100 μL. Then, the dialysis plate was sealed and incubated at 37 °C with 5% CO2 at 100 rpm for 6 h. After 6 hours’ incubation, 50 μL of samples of the dialysis buffer and plasma samples were collected and re-added to a 96-well plate. Then, 50 μL of blank plasma was added to buffer samples, and 50 μL PBS was added to plasma samples. Subsequently, 300 μL quench solution was added to precipitate protein.
Peak Area Ratio buffer chamber means the conc for free fraction;
Peak Area Ratio plasma chamber means the conc for both free and bound fraction;
Peak Area Ratio total sample means the conc for starting sample before incubation.

## CC(=O)N1CCN(c2ccc(OCC3COC(Cn4ccnc4)(c4ccc(Cl)cc4Cl)O3)cc2)CC1 (stereo not shown) [Ketoconazole]
1 μM, 6 h dialysis, 37 °C
  Bound (%): 98.53% and 98.53 ± 4.76%
6 h
  Remaining at 6 h (%): 110.91 ± 6.04%
pH 7.4, 1 μM, 6 h dialysis, 37 °C
  recovery at 6 h, 1 μM: 92.6 ± 7.48%
pH 7.4, 1 μM, 6 h dialysis, 37 °C, read-out: Fu (%), unbound fraction
  fraction unbound at 6 h, 1 µM: 0.0147 ± 0.0068
